Data from patent US20250090567A1, “5-FU AND RNAOG COMBINED IMMUNOCHEMOTHERAPY FOR PANCREATIC CANCER TREATMENT” (ARIZONA BOARD OF REGENTS ON BEHALF OF ARIZONA STATE …, priority 2022, published 2025).

System: MiaPaca-2-iRFP tumors
Experiment: In vivo efficacy, subcutaneous MiaPaca-2-iRFP xenograft, intratumor treatment
Conditions: nude mice, twice a week, total 7 times
Protocol: FIG. 4A. schematic illustration of tumor inoculation and treatment schedule. Nude mice received subcutaneous (SC) injection of […] MiaPaca2-iRFP on day 0. Starting on week 4, the mice received intratumor injections of PBS, 5FU, RNAOG, RNAOG+5FU, or 5FU-RNAOG twice a week for total 7 times.
FIG. 4B. Tumor progression monitored by LI-COR Imaging of near infrared fluorescence intensity from the MiaPaca2-iRFP cell line that expresses iRFP.
FIG. 4C. Tumor dimensions were also measured for each treatment.
FIG. 4D. The survival curve of each treatment group. **and***indicate p<0.01 and p<0.001, respectively.
The in vitro tumor cell suppression effect of 5FU-RNAOG justified further investigation as to whether the combination of the RNAOG with the anticancer drug 5-fluorouracil (5FU) exerts anti-tumor activity in vivo. The human pancreatic cancer cell line, MiaPaca-2, was used as the model because it forms solid tumors in nude mice upon subcutaneous injection (SC). Specifically, MiaPaca-2 cells were engineered to express near infrared fluorescent protein (iRFP) which allows for real-time monitoring of tumor growth of live animals, especially when the tumor load is low. […] Tumor progression was monitored via the fluorescent intensity of iRFP (FIG. 4B), as well as the directly measured tumor size (FIG. 4C). […]

O=c1[nH]cc(F)c(=O)[nH]1 [5FU, 5-fluorouracil]
tumor progression (iRFP fluorescence intensity and tumor size): developed large tumors
